Assay results as given in patent publication US20050004092A1, “Penem derivatives and antimicrobial agent containing the same” (DAIICHI SUNTORY PHARMA CO., LTD., priority 1995, published 2005).
Values after ≈ are worked out from the molar mass of the structure shown. Like-named read-outs stand apart in the source and are kept apart here.

Key:
Experiment in all cases: antibacterial activity (MIC), standard in vitro dilution test
[1] = tested on: MRSA 33 high-resist. (IPM resist.); format: cell-based, Staphylococcus aureus; conditions: for MIC: Staphylococcus aureus, MRSA, read-out: MIC, MRSA 33 high-resist. (IPM resist.)
Text: (§1) With respect to certain compounds (I) of the present invention, their general antibacterial activities and their antibacterial activities (MIC) against various methicillin-resistant strains of Staphylococcus aureus (methicillin-resistant Staphylococcus aureus: MRSA) were investigated. The results will be shown next.
(§2) Of the investigations, the general antibacterial activities were investigated by a standard in vitro dilution test.
(§3) As test bacteria, Staphylococcus aureus 209P JC-1, Escherichia coli NIHJ JC-2 and MRSAs were used.

[2] = tested on: MRSA 31 high-resist. (IPM resist.); format: cell-based, Staphylococcus aureus; conditions: for MIC: Staphylococcus aureus, MRSA, read-out: MIC, MRSA 31 high-resist. (IPM resist.)
Text: as §1, §2, §3

[3] = tested on: Staphylococcus aureus 209P JC-1 strain; format: cell-based; conditions: for MIC: Staphylococcus aureus, 209P, read-out: MIC, Staphylococcus aureus 209P JC-1 strain
Text: as §1, §2, §3

[4] = tested on: Escherichia coli NIHJ JC-2 strain; format: cell-based; conditions: for MIC: Escherichia coli; for MIC, Escherichia coli NIHJ JC-2 strain: test bacterium strain 10^5 cfu/ml
Text: as §1, §2, §3

[5] = test bacterium strain 10^5 cfu/ml
[6] = NIHJJC2, test bacterium strain 10^5 cfu/ml, read-out: MIC, Escherichia coli NIHJ JC-2 strain

SMILES	MIC [1, 5]	MIC [2, 5]	MIC [3, 5]	MIC [4, 6]	also measured
CC[C@H](O)[C@@H]1C(=O)N2C(C(=O)O)=C(SCCN(C)CC(=O)c3ccccc3)S[C@H]12 [Ex. 142, (5R,6R)-6-((S)-1-hydroxypropyl)-2-(2-(N-methyl-N-phenacylamino)ethyl)thiopenem-3-carboxylic acid]	6.25 µg/mL (≈ 14.3 µM)	6.25 µg/mL (≈ 14.3 µM)	0.1 µg/mL (≈ 0.229 µM)	0.78 µg/mL (≈ 1.79 µM)	–
CC[C@H](O)[C@@H]1C(=O)N2C(C(=O)O)=C(SC3CCc4cccnc43)S[C@H]12 (some centres unmarked) [Ex. 231]	–	–	0.1 µg/mL (≈ 0.264 µM)	–	MIC, MRSA 33 high-resist. (IPM resist.) [1, 5]: 1.56 µg/mL (≈ 4.12 µM); MIC, MRSA 31 high-resist. (IPM resist.) [2, 5]: 1.56 µg/mL (≈ 4.12 µM); MIC, Escherichia coli NIHJ JC-2 strain [4]: 3.13 µg/mL (≈ 8.27 µM)
CC[C@H](O)[C@@H]1C(=O)N2C(C(=O)O)=C(SC3CCN(c4ccccc4)C3)S[C@H]12 (stereo partly drawn) [Ex. 105, (5R,6R)-6-((S)-1-hydroxypropyl)-2-(1-phenylpyrrolidin-3-yl)thiopenem-3-carboxylic acid]	1.56 µg/mL (≈ 3.84 µM)	1.56 µg/mL (≈ 3.84 µM)	0.1 µg/mL (≈ 0.246 µM)	> 12.5 µg/mL	–
CC[C@H](O)[C@@H]1C(=O)N2C(C(=O)O)=C(SCCNC(=N)c3ccccc3)S[C@H]12 [Ex. 132, (5R,6R)-2-(2-(α-iminobenzyl)-aminoethyl)thio-6-((S)-1-hydroxypropyl)penem-3-carboxylic acid]	6.25 µg/mL (≈ 15.3 µM)	6.25 µg/mL (≈ 15.3 µM)	0.1 µg/mL (≈ 0.245 µM)	1.56 µg/mL (≈ 3.83 µM)	–
CC[C@H](O)[C@@H]1C(=O)N2C(C(=O)O)=C(S[C@H]3CCN(Cc4ccccn4)C3)S[C@H]12 [Ex. 123, (5R,6R)-6-((S)-1-hydroxypropyl)-2-((S)-1-(2-pyridylmethyl)pyrrolidin-3-yl)thiopenem-3-carboxylic acid]	6.25 µg/mL (≈ 14.8 µM)	6.25 µg/mL (≈ 14.8 µM)	0.2 µg/mL (≈ 0.474 µM)	3.13 µg/mL (≈ 7.43 µM)	–
CC[C@H](O)[C@@H]1C(=O)N2C(C(=O)O)=C(S[C@H]3CCN(CCOc4ccccc4)C3)S[C@H]12 [Ex. 210]	6.25 µg/mL (≈ 13.9 µM)	6.25 µg/mL (≈ 13.9 µM)	0.1 µg/mL (≈ 0.222 µM)	12.5 µg/mL (≈ 27.7 µM)	–
CC[C@H](O)[C@@H]1C(=O)N2C(C(=O)O)=C(S[C@H]3CCN(C4Cc5ccccc5C4)C3)S[C@H]12 [Ex. 214]	3.13 µg/mL (≈ 7.01 µM)	6.25 µg/mL (≈ 14 µM)	0.1 µg/mL (≈ 0.224 µM)	6.25 µg/mL (≈ 14 µM)	–
CC[C@H](O)[C@@H]1C(=O)N2C(C(=O)O)=C(SCCn3cccc3)S[C@H]12 [Ex. 147, (5R,6R)-6-((S)-1-hydroxypropyl)-2-(2-(1-pyrrolyl)ethyl)thiopenem-3-carboxylic acid]	3.13 µg/mL (≈ 8.83 µM)	3.13 µg/mL (≈ 8.83 µM)	0.2 µg/mL (≈ 0.564 µM)	6.25 µg/mL (≈ 17.6 µM)	–
CC[C@H](O)[C@@H]1C(=O)N2C(C(=O)O)=C(S[C@H]3CCN(CC(=O)c4ccc(OC)cc4)C3)S[C@H]12 [Ex. 114, (5R,6R)-6-((S)-1-hydroxypropyl)-2-((S)-1-(2-p-methoxyphenyl-2-oxoethyl)pyrrolidin-3-yl)thiopenem-3-carboxylic acid]	6.25 µg/mL (≈ 13.1 µM)	6.25 µg/mL (≈ 13.1 µM)	0.2 µg/mL (≈ 0.418 µM)	0.2 µg/mL (≈ 0.418 µM)	–
CC[C@H](O)[C@@H]1C(=O)N2C(C(=O)O)=C(SC3CCN(C(=N)NC(=O)c4ccccc4)C3)S[C@H]12 (some centres unmarked) [Ex. 218]	6.25 µg/mL (≈ 13.1 µM)	6.25 µg/mL (≈ 13.1 µM)	0.2 µg/mL (≈ 0.42 µM)	25 µg/mL (≈ 52.5 µM)	–
CC[C@H](O)[C@@H]1C(=O)N2C(C(=O)O)=C(SCc3ccncc3)S[C@H]12 [Ex. 224]	3.13 µg/mL (≈ 8.88 µM)	3.13 µg/mL (≈ 8.88 µM)	0.2 µg/mL (≈ 0.567 µM)	3.13 µg/mL (≈ 8.88 µM)	–
CC[C@H](O)[C@@H]1C(=O)N2C(C(=O)O)=C(S[C@H]3CCN(CC(=O)c4ccccc4)C3)S[C@H]12 [Ex. 111, (5R,6R)-6-((S)-1-hydroxypropyl)-2-((S)-1-phenacylpyrrolidin-3-yl)thiopenem-3-carboxylic acid]	3.13 µg/mL (≈ 6.98 µM)	3.13 µg/mL (≈ 6.98 µM)	0.1 µg/mL (≈ 0.223 µM)	0.2 µg/mL (≈ 0.446 µM)	–
CC[C@H](O)[C@@H]1C(=O)N2C(C(=O)O)=C(S[C@H]3CCN(c4ccccn4)C3)S[C@H]12 [Ex. 204]	3.13 µg/mL (≈ 7.68 µM)	3.13 µg/mL (≈ 7.68 µM)	0.1 µg/mL (≈ 0.245 µM)	6.25 µg/mL (≈ 15.3 µM)	–
CC[C@H](O)[C@]1(C(=O)O)C(=O)N2C=C(S[C@H]3CCN(Cc4ccccc4)C3)S[C@@H]21 [Ex. 44, (5R,6R)-2-((S)-1-benzylpyrrolidin-3-yl)thio-6-((S)-1-hydroxypropyl)penem-6-carboxylic acid]	3.13 µg/mL (≈ 7.44 µM)	3.13 µg/mL (≈ 7.44 µM)	0.1 µg/mL (≈ 0.238 µM)	3.13 µg/mL (≈ 7.44 µM)	–
CC[C@H](O)[C@@H]1C(=O)N2C(C(=O)O)=C(SC3CCN(C4CC4)C3)S[C@H]12 (some centres unmarked) [Ex. 235]	6.25 µg/mL (≈ 16.9 µM)	6.25 µg/mL (≈ 16.9 µM)	0.1 µg/mL (≈ 0.27 µM)	0.78 µg/mL (≈ 2.11 µM)	–
CC[C@H](O)[C@@H]1C(=O)N2C(C(=O)O)=C(S[C@H]3CCN(C(=N)CF)C3)S[C@H]12 [Ex. 253]	6.25 µg/mL (≈ 16 µM)	6.25 µg/mL (≈ 16 µM)	0.1 µg/mL (≈ 0.257 µM)	0.78 µg/mL (≈ 2 µM)	–
CC[C@H](O)[C@@H]1C(=O)N2C(C(=O)O)=C(S[C@H]3CCN(c4ccncc4)C3)S[C@H]12 [Ex. 203]	3.13 µg/mL (≈ 7.68 µM)	3.13 µg/mL (≈ 7.68 µM)	0.05 µg/mL (≈ 0.123 µM)	0.78 µg/mL (≈ 1.91 µM)	–
CC[C@H](O)[C@@H]1C(=O)N2C(C(=O)O)=C(SC3Cc4ccccc4C3)S[C@H]12 [Ex. 225]	1.56 µg/mL (≈ 4.13 µM)	1.56 µg/mL (≈ 4.13 µM)	0.05 µg/mL (≈ 0.132 µM)	12.5 µg/mL (≈ 33.1 µM)	–
CC[C@H](O)[C@@H]1C(=O)N2C(C(=O)O)=C(SC3CCN(C4CCCC4)C3)S[C@H]12 (some centres unmarked) [Ex. 227]	6.25 µg/mL (≈ 15.7 µM)	6.25 µg/mL (≈ 15.7 µM)	0.1 µg/mL (≈ 0.251 µM)	0.78 µg/mL (≈ 1.96 µM)	–
CC[C@H](O)[C@@H]1C(=O)N2C(C(=O)O)=C(SCc3ccc(Cl)c(Cl)c3)S[C@H]12 [Ex. 236]	1.56 µg/mL (≈ 3.71 µM)	1.56 µg/mL (≈ 3.71 µM)	0.1 µg/mL (≈ 0.238 µM)	50 µg/mL (≈ 119 µM)	–
CC[C@H](O)[C@@H]1C(=O)N2C(C(=O)O)=C(S[C@H]3CCN(CC(=O)c4ccc5c(c4)OCO5)C3)S[C@H]12 [Ex. 207]	6.25 µg/mL (≈ 12.7 µM)	6.25 µg/mL (≈ 12.7 µM)	0.1 µg/mL (≈ 0.203 µM)	0.39 µg/mL (≈ 0.792 µM)	–
CC[C@H](O)[C@@H]1C(=O)N2C(C(=O)O)=C(S[C@H]3CCN(c4nccs4)C3)S[C@H]12 [Ex. 229]	3.13 µg/mL (≈ 7.57 µM)	3.13 µg/mL (≈ 7.57 µM)	0.1 µg/mL (≈ 0.242 µM)	12.5 µg/mL (≈ 30.2 µM)	–
C=CCN1CCC(SC2=C(C(=O)O)N3C(=O)[C@@H]([C@@H](O)CC)[C@H]3S2)C1 (stereo partly drawn) [Ex. 18, (5R,6R)-2-(1-allyl-3-pyrrolidine)-thio-6-((S)-1-hydroxypropyl)penem-3-carboxylic acid]	–	–	–	–	MIC, MRSA 33 high-resist. (IPM resist.) [1, 5]: 3.13 µg/mL (≈ 8.45 µM); MIC, MRSA 31 high-resist. (IPM resist.) [2, 5]: 3.13 µg/mL (≈ 8.45 µM); MIC, Staphylococcus aureus 209P JC-1 strain [3, 5]: ≦0.025 μg/ml; MIC, Escherichia coli NIHJ JC-2 strain [4]: 0.39 µg/mL (≈ 1.05 µM)
CC[C@H](O)[C@@H]1C(=O)N2C(C(=O)O)=C(SCc3nc4ccccc4[nH]3)SC12 (some centres unmarked) [Ex. 205]	3.13 µg/mL (≈ 8 µM)	3.13 µg/mL (≈ 8 µM)	0.1 µg/mL (≈ 0.255 µM)	3.13 µg/mL (≈ 8 µM)	–
CC[C@H](O)[C@@H]1C(=O)N2C(C(=O)O)=C(S[C@H]3CCN(C(C)C(=O)c4ccccc4)C3)S[C@H]12 (some centres unmarked) [Ex. 117]	–	–	–	–	MIC [1]: 6.25 µg/mL (≈ 13.5 µM); MIC [2]: 6.25 µg/mL (≈ 13.5 µM); MIC [3]: 0.1 µg/mL (≈ 0.216 µM); MIC ([4]; NIHJJC2, read-out: MIC, Escherichia coli NIHJ JC-2 strain): 1.56 µg/mL (≈ 3.37 µM)
CC[C@H](O)[C@@H]1C(=O)N2C(C(=O)O)=C(SCc3ccccn3)S[C@H]12 [Ex. 129, (5R,6R)-6-((S)-1-hydroxypropyl)-2-(2-pyridylmethyl)thiopenem-3-carboxylic acid]	6.25 µg/mL (≈ 17.7 µM)	6.25 µg/mL (≈ 17.7 µM)	0.2 µg/mL (≈ 0.567 µM)	6.25 µg/mL (≈ 17.7 µM)	–
